We go through eight molecules from ChEMBL document CHEMBL1201862, “PubChem BioAssay data set” (2004).

A word on the EC50: it is the concentration needed to bring the measured effect to its halfway point.

Molecules are shown by their SMILES. The source made the active and inactive calls. No stated cut-off is given here; in the data, actives have a measured EC50 and inactives only a lower limit. A value given as a limit tells only on which side of the number the result lay.

The first test in a line: inhibitors of firefly luciferase expression or activity, dose response, H4 neuroglioma cells, luminescence (AID 1990). The test is classed as functional, cell-based.
For the molecule `O=[N+]([O-])c1ccc(OCc2cn([C@@H](CO)c3ccccc3)nn2)c(Br)c1`, the EC50 is recorded as > 120 µM (not active).

Regarding `Cc1ccc(N2CC(C(=O)Nc3nnc(SCC(=O)Nc4cc(C)on4)s3)CC2=O)cc1` (centres undefined), the EC50 is > 120 µM (not active).

`CC1CCc2nc(NCCO)nc(C(F)(F)F)c2C1` (centres undefined): the EC50 was 12.5 µM (active).

In the case of `NC(=O)c1sc2nc3c(c(-c4ccc(Cl)cc4)c2c1N)CCCC3`, the EC50 is 12.5 µM (active).

Turning to `COC(=O)C1CCN(C(=O)COC(=O)Cc2c[nH]c3ccccc23)CC1`, the EC50 is > 120 µM (not active).

Consider `O=c1c([N+](=O)[O-])c[nH]c2nc(-c3ccncc3)nn12`, for which the EC50 is 15.8 µM (active).

Consider `O=C(CC12CC3CC(CC(C3)C1)C2)NC(=S)NCc1ccccc1`, for which the EC50 was 13.1 µM (active).

As for `O=C(Cn1cnc2c(cnn2-c2ccc(Cl)cc2)c1=O)N1CCN(c2ccccc2)CC1`, the EC50 was 15.8 µM (active).

A short description of another test: Luminescence Cell-Based Dose Response HTS to Identify Inhibitors of 5'UTR Stem-Loop Driven Prion Protein mRNA Translation in H4 Neuroglioblastoma Cells. [Related pubchem assays: 1827 (Project Summary), 1813 (Primary HTS)]. Format: functional.
`O=[N+]([O-])c1ccc(OCc2cn([C@@H](CO)c3ccccc3)nn2)c(Br)c1`: the EC50 is reported as > 120 µM (not active).

Regarding `Cc1ccc(N2CC(C(=O)Nc3nnc(SCC(=O)Nc4cc(C)on4)s3)CC2=O)cc1` (centres undefined), the EC50 is on record as > 120 µM (not active).

Regarding `CC1CCc2nc(NCCO)nc(C(F)(F)F)c2C1` (centres undefined), the EC50 is 26.1 µM (active).

Take `NC(=O)c1sc2nc3c(c(-c4ccc(Cl)cc4)c2c1N)CCCC3`: the EC50 is recorded as > 120 µM (not active).

For the molecule `COC(=O)C1CCN(C(=O)COC(=O)Cc2c[nH]c3ccccc23)CC1`, the EC50 is reported as > 120 µM (not active).

On to `O=c1c([N+](=O)[O-])c[nH]c2nc(-c3ccncc3)nn12`, for which the EC50 is 14.2 µM (active).

With `O=C(CC12CC3CC(CC(C3)C1)C2)NC(=S)NCc1ccccc1`, the EC50 is 18.4 µM (active).

On to `O=C(Cn1cnc2c(cnn2-c2ccc(Cl)cc2)c1=O)N1CCN(c2ccccc2)CC1`, for which the EC50 is 12 µM (active).

The next test in a line: inhibitors of SNCA 5'UTR-driven reporter translation, confirmation, H4 neuroglioma cells, luminescence (AID 1988). The test is classed as functional, cell-based.
`O=[N+]([O-])c1ccc(OCc2cn([C@@H](CO)c3ccccc3)nn2)c(Br)c1`: the half-maximal effective concentration (EC50) is listed as > 120 µM (not active).

Regarding `Cc1ccc(N2CC(C(=O)Nc3nnc(SCC(=O)Nc4cc(C)on4)s3)CC2=O)cc1` (centres undefined), the EC50 was > 120 µM (not active).

As for `CC1CCc2nc(NCCO)nc(C(F)(F)F)c2C1` (centres undefined), the EC50 is listed as > 120 µM (not active).

On to `NC(=O)c1sc2nc3c(c(-c4ccc(Cl)cc4)c2c1N)CCCC3`, for which the EC50 was 12.3 µM (active).

Take `COC(=O)C1CCN(C(=O)COC(=O)Cc2c[nH]c3ccccc23)CC1`: the EC50 is > 120 µM (not active).

Regarding `O=c1c([N+](=O)[O-])c[nH]c2nc(-c3ccncc3)nn12`, the EC50 is given as > 120 µM (not active).

For `O=C(CC12CC3CC(CC(C3)C1)C2)NC(=S)NCc1ccccc1`, the EC50 is 16.8 µM (active).

Take `O=C(Cn1cnc2c(cnn2-c2ccc(Cl)cc2)c1=O)N1CCN(c2ccccc2)CC1`: the EC50 was 18.4 µM (active).
